Legend:
Neutrophil [1] = assay: Anti-inflammatory activity in human neutrophils assessed as inhibition of fMLP/CB-induced elastase release preincubated for 5 mins followed by fMLP/CB stimulation for 10 mins using MeO-Suc-Ala-Ala-Pro-Val-p-nitroanilide as substrate; assay type: functional, cell-based
Neutrophil [2] = assay: Anti-inflammatory activity in human neutrophils assessed as inhibition of fMLP/CB-induced superoxide anion generation at 10 uM preincubated for 5 mins followed by cytochalasin B addition for 3 mins and fMLP for 10 mins by superoxide dismutase inhibitable reduction of ferricytochrome c based assay relative to control; assay type: functional
Neutrophil [3] = assay: Anti-inflammatory activity in human neutrophils assessed as inhibition of fMLP/CB-induced superoxide anion generation preincubated for 5 mins followed by cytochalasin B addition for 3 mins and fMLP for 10 mins by superoxide dismutase inhibitable reduction of ferricytochrome c based assay; assay type: functional, cell-based
A549 = assay: Cytotoxicity against human A549 cells after 72 hrs by alamar blue assay; assay type: functional, cell-based; settings: A549, 72 h
HT-29 = assay: Cytotoxicity against human HT-29 cells after 72 hrs by alamar blue assay; assay type: functional, cell-based; settings: HT-29, 72 h
P388 = assay: Cytotoxicity against mouse P388 cells after 72 hrs by alamar blue assay; assay type: functional, cell-based; settings: P388, 72 h
DLD-1 = assay: Cytotoxicity against human DLD1 cells after 72 hrs by alamar blue assay; assay type: functional, cell-based; settings: DLD-1, 72 h
Neutrophil [4] = assay: Anti-inflammatory activity in human neutrophils assessed as inhibition of fMLP/CB-induced elastase release at 10 uM preincubated for 5 mins followed by fMLP/CB stimulation for 10 mins using MeO-Suc-Ala-Ala-Pro-Val-p-nitroanilide as substrate; assay type: functional
K562 = assay: Cytotoxicity against human K562 cells after 72 hrs by alamar blue assay; assay type: functional, cell-based; settings: K562, 72 h

| Structure (SMILES) | IC50 (Neutrophil [1]) | inhibition at 10 µM (Neutrophil [2]) | IC50 (Neutrophil [3]) | IC50 (A549) | IC50 (HT-29) | IC50 (P388) | IC50 (DLD-1) | inhibition at 10 µM (Neutrophil [4]) | IC50 (K562) |
| --- | --- | --- | --- | --- | --- | --- | --- | --- | --- |
| CC(C)[C@@H](C)[C@@]1(C)C[C@@H]1[C@@H](C)[C@H]1CC[C@H]2[C@@H]3[C@H](O)C=C4C[C@@H](O)CC[C@]4(C)[C@@]3(O)OC[C@]12C | > 10 µM | 1.21% | > 10 µM | > 40 µM | > 40 µM | > 40 µM | > 40 µM | 25.2% | > 40 µM |
| CC(C)[C@@H](C)[C@@]1(C)C[C@@H]1[C@@H](C)[C@H]1CC[C@@H]([C@@]23C=C[C@]4(C[C@@H](O)CC[C@]4(C)C2=O)OO3)[C@]1(C)CCO | 1.55 µM | 67% | 5.83 µM | 15.8 µM | 27.5 µM | > 40 µM | 27.5 µM | 111% | 22.5 µM |
| CC(C)[C@@H](C)C[C@H](O)[C@@H](C)[C@H]1CC[C@H]2[C@@H]3[C@@H](O)C=C4C[C@@H](O)CC[C@]4(C)[C@H]3CC[C@]12C | 5.84 µM | 12.6% | > 10 µM | > 40 µM | 36.7 µM | 31.8 µM | > 40 µM | 79.2% | > 40 µM |
| COc1cccc2c1C(=O)c1c(O)c3c(c(O)c1C2=O)C[C@@](O)(C(=O)CO)C[C@@H]3O[C@H]1C[C@H](N)[C@H](O)[C@H](C)O1 [DOXORUBICIN] | – | – | – | – | 0.87 µM | – | – | – | – |

From ChEMBL document CHEMBL3994640, “Klyflaccisteroids K-M, bioactive steroidal derivatives from a soft coral Klyxum flaccidum” (Bioorg Med Chem Lett, 2017)
